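In this assay, cells in 96-well plates receive the compound at five concentrations for 48 hours. Endpoints are linearly interpolated between the surrounding concentrations. At the GI50, growth is halved. TGI denotes the concentration required for complete inhibition of growth.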
Key:
Assay in all cases: growth of human tumour cells (NCI), 48 h
[1] = test system: UACC-62 melanoma
[2] = test system: OVCAR-3 ovarian
[3] = test system: HCT-15 colon
[4] = test system: HS 578T breast
[5] = test system: SK-MEL-28 melanoma
[6] = test system: SK-MEL-2 melanoma
[7] = test system: HCT-116 colon
[8] = test system: CCRF-CEM leukemia
[9] = test system: OVCAR-8 ovarian
[10] = test system: NCI-H226 lung

SMILES	GI50 [1] [µM]	TGI [1] [µM]	GI50 [2] [µM]	TGI [2] [µM]	GI50 [3] [µM]	TGI [3] [µM]	GI50 [4] [µM]	TGI [4] [µM]	GI50 [5] [µM]	TGI [5] [µM]	GI50 [6] [µM]	TGI [6] [µM]	GI50 [7] [µM]	TGI [7] [µM]	GI50 [8] [µM]	TGI [8] [µM]	GI50 [9] [µM]	TGI [9] [µM]	GI50 [10] [µM]	TGI [10] [µM]
O=CC(OC(=O)c1ccccc1)C(OC(=O)c1ccccc1)C(COC(c1ccccc1)(c1ccccc1)c1ccccc1)OC(=O)c1ccccc1 (stereo unspecified)	14.5	44.1	11	24.1	16.6	43.1	33.2	> 100	13.5	28.3	18.4	50.4	6.21	19	2.21	7.26	4.76	54.1	18.9	64.4
C[C@@H]1CC[C@H]2[C@@H](C)C(O)O[C@@H]3O[C@]4(C)CC[C@@H]1[C@]32OO4 (stereo partly specified)	0.56	> 76.9	0.431	15.6	0.141	13.8	1.33	42.2	3.23	> 74.5	2	15.2	0.141	3.55	0.568	35	0.389	12.7	1.56	40.9
CCOC(=O)/C(=C/CC/C(C)=C/CC/C(C)=C/CCc1ccoc1)CC(=O)N1CCCCC1	2.8	12.7	3.44	12.3	3.01	12.5	5.07	35.2	3.2	12.4	2.04	4	2.66	10.2	3.56	22.5	3.97	40.2	4.48	19.4
Cc1cccc2c(C3=C(c4cn(C)c5ccccc45)C(=O)NC3=O)cn(C)c12	> 25	> 25	9.33	> 25	11.5	> 25	2.83	17.3	17.5	> 25	24.3	> 25	> 15.8	> 25	> 18	> 25	12.2	> 25	> 25	> 25
COc1ccc(C(=O)/C=C/c2sc(Cl)nc2Cl)cc1	2.22	6.19	1.84	3.48	0.416	2.14	3.29	18.6	2.57	8.17	11.1	35.5	0.49	1.84	0.267	14.7	1.05	13.9	0.655	17.8
CNC(=O)c1cc(Oc2ccc3nc(NC(=O)Nc4ccc(CN5CCOCC5)c(C(F)(F)F)c4)sc3c2)ccn1	1.44	4.58	1.79	4.16	2.08	7.09	2.55	9.6	1.8	4.29	2.74	7.81	1.78	3.62	2.73	> 100	2.63	7.71	1.73	4.3
Nc1nc(=O)n(C2CC(O)C(CO)O2)cc1F (stereo unspecified)	< 0.0473	> 100		> 100	28.4	> 100	55.2	> 100		> 100		> 100	1.49	> 100	0.00276	> 100	0.0594	> 100		> 100
C[C@@H](C1CC[C@H]2[C@@H]3[C@@H]4O[C@@H]4[C@@]4(O)CC=CC(=O)[C@]4(C)[C@H]3C[C@H](O)[C@]12C)[C@H]1C[C@]2(C)O[C@]2(C)C(=O)O1 (stereo partly specified)		> 100		> 100		> 100		> 100		> 100		> 100		> 100		> 100		> 100		> 100
O=C(O)C1C2C=CC(O2)C1C(=O)NCc1cccnc1 (stereo unspecified)		> 100		> 100		> 100		> 100		> 100		> 100		> 100		> 100		> 100		> 100
CC(C)C[C@H](CC(=O)O)C(=O)N[C@@H](Cc1c[nH]c2ccccc12)C(=O)N[C@@H](C)c1ccccc1	> 25	> 25	> 25	> 25	> 25	> 25	> 25	> 25	> 25	> 25	> 25	> 25	> 25	> 25	> 25	> 25	> 25	> 25	> 25	> 25

From PubChem BioAssay (NCI)
